Consider 4 compounds from patent US10001584B2, “Optical film, and polarizing plate and liquid crystal display device that use this optical film” (FUJIFILM Corporation, priority 2013, dated 2018).

Data set [1] in a line: Volatility: mass change rate of the compound by TG/DTA, held at 140° C. for 1 hour. Particulars: for Volatility: held at 140° C. for 1 hour; for volatility suppression effect: in words, discussion of Table 1. Type of data set: physicochemical. How it is done: The compound denoted by Formula (I) in the present invention was heated from room temperature to 140° C. by using a TG/DTA measurement device (TG/DTA7200 manufactured by Hitachi High-Tech Science Corporation), a change rate of the mass of the compound at the time of being held at 140° C. for 1 hour (a change rate with respect to the mass before being heated) was measured, and the volatility was evaluated on the basis of the following criteria.

The nature of data set [2]: pKa by alkali titration with automatic potentiometric titrator. The note with it: mixed solvent THF/H2O=6/4 (volume ratio), 25° C.; for pKa: Table 1. Type of data set: physicochemical. As to the method: pKa of the obtained exemplificative compound was measured in a mixed solvent having a volume ratio of tetrahydrofuran (THF)/water (H2O)=6/4 at 25° C. by an alkali titration method using automatic potentiometric titrator [AT-610: manufactured by Kyoto Electronics Manufacturing Co., Ltd.].
The pKa of the compound of the present invention and the comparative compound in a mixed solvent having a volume ratio of tetrahydrofuran (THF)/water (H2O)=6/4 at 25° C. was measured by an alkali titration method using automatic potentiometric titrator (AT-610: manufactured by Kyoto Electronics Manufacturing Co., Ltd.).

Setting [3] is: tetrahydrofuran/water 6/4 (v/v) mixed solvent, read-out: pKa.

Each structure is given as a SMILES string. Like-named read-outs stand apart in the source and are kept apart here.

Consider `O=C(O)CN(CC(=O)O)Cc1ccccc1` [(0-2)], for which the Volatility entry in data set [1] (compound alone, Table 1) was “B (The change rate of the mass of greater than or equal to 0.2% and less than 0.5%)”. In addition, the volatility suppression effect result in data set [1] is listed as “insufficient”. Also, the pKa in data set [2] (setting [3]) is 3.2.

Take `CCC(Oc1ccc(C(C)(C)CC)cc1C(C)(C)CC)C(=O)Nc1cccc(C(=O)O)c1` (stereo not shown) [(0-3)]: the Volatility result in data set [1] (compound alone, Table 1) is recorded as “A (The change rate of the mass of less than or equal to 0.2%)”. Moreover, the pKa in data set [2] (setting [3]) was determined as 6.6.

Regarding `O=C1NC(=O)N(Cc2ccccc2)C(=O)C1c1ccccc1` (stereo not shown) [Comparative Compound (0-1)], the Volatility entry in data set [1] (compound alone, Table 1) is “B (The change rate of the mass of greater than or equal to 0.2% and less than 0.5%)”. In addition, the volatility suppression effect entry in data set [1] was “insufficient”. In data set [2] (setting [3]), the pKa was 3.7.

With `O=C(O)CN(CC(=O)OCc1ccccc1)CC(=O)OCc1ccccc1` [Exemplificative Compound (1-1)], the Volatility result is “A (The change rate of the mass of less than or equal to 0.2%)” in data set [1] (additive, Table 3); “A (The change rate of the mass of less than or equal to 0.2%)” in data set [1] (additive, Table 4); “A (The change rate of the mass of less than or equal to 0.2%)” in data set [1] (compound alone, Table 1). The “pKa Value” in data set [2] is recorded as 6.0. Besides, the pKa in data set [2] is 6.0.

For orientation: pKa means the negative logarithm of the acid dissociation constant.
